The results in this text go back to patent publication US9676758B2, “1-heteroaryl-indoline-4-carboxamides as modulators of GPR52 useful for the treatment or prevention of disorders related thereto” (Arena Pharmaceuticals, Inc., priority 2015, dated 2017).

The structures appear in SMILES notation.

Data set [1] can be described thus: Brain penetration (plasma and brain exposure). Particulars: male C57BL6 mice, 60 minute time point. It is filed as in vivo, mouse. The procedure:
Plasma and brain exposure were evaluated to determine the brain penetration of compounds described herein. Male C57BL6 mice were administered a single per oral (PO) dose of compound at 3 or 10 mg/kg (as a free base) formulated in 20% HPCD in 0.9% NaCl. Blood and brain samples were collected 60 minutes post-dose (n=3-6 animals). Blood was collected via cardiac puncture and stored on ice prior to the separation of plasma by centrifugation. Brains were extracted from the cranium and frozen on dry ice. Tissue samples were stored at approximately −80° C. prior to bioanalytical analysis.
Analyte plasma and brain concentrations were determined by LC/MS/MS.

Data set [2] deals with male C57/BL6 mice. Kind of data set: Mouse basal locomotor activity. The class given is in vivo. As to conditions: po, 10 mg/kg P.O. The procedure:
To measure basal locomotor activity, male C57/BL6 mice (8-16 weeks) (Jackson Laboratories, Sacramento, Calif.) were transferred in home cages to the testing room approximately 60 minutes prior to testing. Approximately 15 minutes after arrival in the testing room, a dark cycle commenced, with lights turning off and infrared lights turning on for experimenter visibility. Thirty minutes after the lights were turned off, animals were individually weighed and administered either vehicle (20% hydroxypropyl-β-cyclodextrin) Compound 13 (1, 2, 5, 10, or 20 mg/kg P.O.), or another GPR52 agonist (10 mg/kg P.O.) and returned to home cages. Fifteen minutes later, mice were placed into locomotor cages and activity was recorded for 60 minutes.

Data set [3] addresses T1, recombinant GPR52 (Homo sapiens, UniProt Q9Y2T5).
T1 construct: expressed in transfected cells
In words: HTRF cAMP assay for direct cAMP measurement. It is filed as cell-based. As to conditions: mean EC50; CHO-K1 or HEK293 cells stably expressing recombinant GPR52. The procedure:
HTRF cAMP assays were performed using commercially available assay kits according to the manufacturer's instructions (cAMP Dynamic 2 Assay Kit; #62AM4PEJ, Cisbio Bioassays, Bedford, Mass.). CHO-K1 or HEK293 cells stably expressing recombinant GPR52 were harvested and resuspended in assay buffer (PBS containing 0.5 mM IBMX and 0.1% BSA) at a density of 1.2×10^6 cells per mL. […] Test compounds were solubilized and serially diluted in DMSO using 5-fold dilutions to generate 10-point dose response curves. These serially diluted samples were then further diluted in PBS to achieve a 2× stock. The diluted compounds were transferred to triplicate assay plates (5 μL per well to achieve the 1× final assay concentration). A positive control was included in each assay run. After one-hour incubation at room temperature, 5 μL of cAMP D2 reagent diluted in lysis buffer was added to each well, followed by 5 μL of cryptate reagent. Plates were then incubated at room temperature for one hour prior to reading. Time-resolved fluorescence measurements were collected on an HTRF-capable plate reader (e.g., EnVision® (PerkinElmer, Waltham, Mass.) or PHERAstar (BMG LABTECH, Cary, N.C.)). Counts from the plate reader were fit to the cAMP standard curve included on each plate to determine the amount of cAMP in each test well. Dose-response curves were generated from the cAMP data and analyzed using a nonlinear least squares curve-fitting program to obtain EC50 values.
On the technique in general: TR-FRET usually uses a lanthanide donor and a delayed reading to cut background.

Data set [4] relates to male Sprague Dawley rats. Kind of data set: Plasma prolactin levels in rats (ELISA). It is filed as in vivo, rat. Particulars: basal prolactin release, haloperidol 0.1 and 1 mg/kg P.O., Compound 13 1, 10, and 100 mg/kg P.O., FIG. 28A. The procedure: Another unwanted side effect of certain antipsychotics is hyperprolactinemia. To examine prolactin levels following the administration of a GPR52 agonist, male Sprague Dawley rats (Harlan Laboratories, San Diego, Calif.) were single-housed, handled, and moved to a private housing room one week prior to testing. Rats were individually handled and sham dosed P.O. for four days prior to testing. For an assessment of haloperidol (0.1 and 1 mg/kg P.O.) and Compound 13 (1, 10, and 100 mg/kg P.O.) on basal prolactin release, rats were dosed with acidic 20% HP-β-cyclodextrin (HBCD) or compound at 3 mL/kg P.O. in their housing room 60 minutes prior to harvest. For interaction studies, rats were dosed with 20% HBCD or Compound 13 (10 mg/kg P.O.) 90 minutes prior to harvest, and additionally with 20% HBCD vehicle or haloperidol (0.3 and 1 mg/kg P.O.) 60 minutes prior to harvest. Rats were individually taken to the harvest room, and trunk blood was collected into 4 mL EDTA tubes following live decapitation. Samples were stored on wet ice until collection was complete, then spun in a cooling centrifuge at 2400 rpm for 20 minutes. Plasma was collected and frozen for subsequent analysis using a Rat Prolactin ELISA kit (ALPCO Diagnostics: Cat#55-PRLRT-E01).
Briefly, frozen plasma was thawed on ice and mixed prior to initiation of the ELISA. Twenty-five microliters of sample plasma along with serially diluted standards (lyophilized purified rat prolactin diluted with rat prolactin calibrator/sample diluent), and calibrator/sample diluent used as a blank were placed in a 96-well plate provided with the ELISA kit. Samples, blank, and standards were measured in duplicate. […] Fifty microliters of stop solution (2M hydrochloric acid) was added to the wells prior to reading on a 96-well plate reader (SpectraMax® 340PC; Molecular Devices, Sunnyvale, Calif.) at […]. The quantity of prolactin in each sample was calculated using a standard curve.

Data set [5] concerns male Sprague-Dawley rats. Kind of data set: Catalepsy (vertical grid) in rats. As to conditions: Compound 13 5-100 mg/kg P.O., haloperidol 0.1, 0.3, or 1 mg/kg S.C., 45 minutes post-dose. The class given is in vivo, rat. The procedure:
Catalepsy is used as a model for detecting extrapyramidal side effects of antipsychotic drugs. […] The rats were removed from home cages 45 minutes later and placed on a vertical stainless steel grid, and the latency to move both forepaws from their starting position was measured for a maximum of 30 seconds. The test was repeated three times consecutively.
Catalepsy is expressed as the average latency to move both forepaws over the three trials. Latency increased in the rats administered haloperidol (see FIG. 27B), but was unchanged in rats administered Compound 13 (see FIG. 27A).

T1 sequence (Q9Y2T5 whole entry): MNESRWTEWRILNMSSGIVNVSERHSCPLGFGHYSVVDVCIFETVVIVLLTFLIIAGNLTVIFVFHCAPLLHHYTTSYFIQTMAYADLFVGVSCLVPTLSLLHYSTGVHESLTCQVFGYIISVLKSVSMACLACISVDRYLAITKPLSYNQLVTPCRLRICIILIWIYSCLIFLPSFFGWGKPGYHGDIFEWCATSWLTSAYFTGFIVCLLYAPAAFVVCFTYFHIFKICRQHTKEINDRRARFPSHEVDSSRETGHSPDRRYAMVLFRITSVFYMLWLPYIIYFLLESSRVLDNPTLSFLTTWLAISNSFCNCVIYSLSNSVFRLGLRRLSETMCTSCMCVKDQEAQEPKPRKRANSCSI

As for `NC(=O)c1cccc2c1CCN2c1cc(Cc2cccc(C(F)(F)F)c2)ccn1` [Compound 5, 1-(4-(3-(Trifluoromethyl)benzyl)pyridin-2-yl)indoline-4-carboxamide], the “Brain/Plasma Ratio” value in data set [1] (PO dose 3 mg/kg) is 4.49.

With `NC(=O)c1cccc2c1CCN2c1cc(Cc2cc(F)cc(Cl)c2)ccn1` [Compound 42, 1-(4-(3-Chloro-5-fluorobenzyl)pyridin-2-yl)indoline-4-carboxamide], the “Brain/Plasma Ratio” value in data set [1] (PO dose 10 mg/kg) amounted to 12.40.

Usually inhibition stands for how much of the control response was suppressed. A high value points to a response far below the control. As usually defined, the EC50 is the concentration at which the effect is half-maximal. As for `O=C(NCCO)c1cccc2c1CCN2c1cc(Cc2cc(F)cc(Cl)c2)ccn1` [Compound 43, 1-(4-(3-Chloro-5-fluorobenzyl)pyridin-2-yl)-N-(2-hydroxyethyl)indoline-4-carboxamide], the “Brain/Plasma Ratio” value in data set [1] (PO dose 10 mg/kg) is 5.45. The same compound gave an inhibition at 10 mg/kg in data set [2] of 79%. The EC50 in data set [3] is 9.76 nM.

For `NC(=O)c1cccc2c1CCN2c1cc(Cc2cncc(C(F)(F)F)c2)ccn1` [Compound 47, 1-(4-((5-(Trifluoromethyl)pyridin-3-yl)methyl)pyridin-2-yl)indoline-4-carboxamide], in data set [1] (PO dose 10 mg/kg), the “Brain/Plasma Ratio” value was 4.67.

As to `COc1ccc(Cc2ccnc(N3CCc4c(C(N)=O)cccc43)c2)cc1F` [Compound 54, 1-(4-(3-Fluoro-4-methoxybenzyl)pyridin-2-yl)indoline-4-carboxamide], in data set [1] (PO dose 10 mg/kg), the “Brain/Plasma Ratio” value stood at 6.32. Testing at 10 mg/kg in data set [2] gave an inhibition of 66%. The EC50 in data set [3] is 5.57 nM.

As for `NC(=O)c1cccc2c1CCN2c1cc(Cc2ccc(F)c(Cl)c2)ccn1` [Compound 58, 1-(4-(3-Chloro-4-fluorobenzyl)pyridin-2-yl)indoline-4-carboxamide], the “Brain/Plasma Ratio” value in data set [1] (PO dose 10 mg/kg) is given as 7.76.

For the compound `COc1ccc(Cc2ccnc(N3CCc4c(C(=O)NCCO)cccc43)c2)cc1F` [Compound 69, 1-(4-(3-Fluoro-4-methoxybenzyl)pyridin-2-yl)-N-(2-hydroxyethyl)indoline-4-carboxamide], the “Brain/Plasma Ratio” value in data set [1] (PO dose 10 mg/kg) was found to be 0.87. Besides, the EC50 in data set [3] came to 3.11 nM.

Take `CC(=O)c1cccc(Cc2ccnc(N3CCc4c(C(N)=O)cccc43)c2)c1` [Compound 78, 1-(4-(3-Acetylbenzyl)pyridin-2-yl)indoline-4-carboxamide]: the “Brain/Plasma Ratio” value in data set [1] (PO dose 10 mg/kg) came out at 1.36. 10 mg/kg produced 72% inhibition in data set [2]. Further, the EC50 in data set [3] was 11.2 nM.

`O=C(NC1CCN(CCO)CC1)c1cccc2c1CCN2c1cc(Cc2ccc3c(c2)CCO3)ccn1` [Compound 79, 1-(4-((2,3-Dihydrobenzofuran-5-yl)methyl)pyridin-2-yl)-N-(1-(2-hydroxyethyl)piperidin-4-yl)indoline-4-carboxamide]: the “Brain/Plasma Ratio” value in data set [1] (PO dose 10 mg/kg) is 0.16.

On to `O=C(NCCO)c1cccc2c1CCN2c1cc(Cc2cc(F)c(F)c(F)c2)ccn1` [Compound 92, N-(2-Hydroxyethyl)-1-(4-(3,4,5-trifluorobenzyl)pyridin-2-yl)indoline-4-carboxamide], for which the “Brain/Plasma Ratio” value in data set [1] (PO dose 10 mg/kg) is on record as 3.00. Besides, in data set [2], the inhibition at 10 mg/kg came to 65%. The EC50 in data set [3] was 8.87 nM.

Consider `O=C(NCCO)c1c(F)ccc2c1CCN2c1cc(Cc2cccc(C(F)(F)F)c2)ccn1` [Compound 108, 5-Fluoro-N-(2-hydroxyethyl)-1-(4-(3-(trifluoromethyl)benzyl)pyridin-2-yl)indoline-4-carboxamide], for which, in data set [1] (PO dose 10 mg/kg), the “Brain/Plasma Ratio” value worked out at 1.67.

As for `O=C(NCCO)c1c(F)ccc2c1CCN2c1cc(Cc2cc(F)c(F)c(F)c2)ccn1` [Compound 140, 5-Fluoro-N-(2-hydroxyethyl)-1-(4-(3,4,5-trifluorobenzyl)pyridin-2-yl)indoline-4-carboxamide], the inhibition at 10 mg/kg in data set [2] amounted to 68%. For the same compound, the EC50 in data set [3] was found to be 30.1 nM.

Regarding `O=C(NC[C@@H](F)CO)c1cccc2c1CCN2c1cc(Cc2cc(F)c(F)c(F)c2)ccn1` [Compound 166, (R)—N-(2-Fluoro-3-hydroxypropyl)-1-(4-(3,4,5-trifluorobenzyl)pyridin-2-yl)indoline-4-carboxamide], the “Brain/Plasma Ratio” value in data set [1] (PO dose 10 mg/kg) is recorded as 2.85. Besides, testing at 10 mg/kg in data set [2] gave an inhibition of 70%. The EC50 in data set [3] is 12.2 nM.

The compound `COc1ccc(Cc2ccnc(N3CCc4c3ccc(F)c4C(=O)NC[C@@H](F)CO)c2)cc1F` [Compound 167, (R)-5-Fluoro-N-(2-fluoro-3-hydroxypropyl)-1-(4-(3-fluoro-4-methoxybenzyl)pyridin-2-yl)indoline-4-carboxamide] yielded an inhibition at 10 mg/kg in data set [2] of 62%. In data set [3], the EC50 was found to be 18.2 nM.

Regarding `O=C(CCCN1CCC(O)(c2ccc(Cl)cc2)CC1)c1ccc(F)cc1` [haloperidol, reference compound], in data set [4], the prolactin levels result was “increased”. The “catalepsy: average latency to move both forepaws” value in data set [5] was “increased”.
